# Bridge positions count the residues as written; N and C are the ends. Square brackets hold non-standard residues; d marks the D form. Peptide text beside a SMILES is read from it. * marks the point of attachment. Palmitoyl = CCCCCCCCCCCCCCCC(=O)*; Dap = NC[C@H](N)C(=O)O; AEEA = NCCOCCOCC(=O)O
# What was measured:
# [1] = system: E0771 breast cancer cells; assay: Orthotopic mouse model of bone metastasis using breast cancer E0771 cells (FIG. 10); type: in vivo, mice
# Method: FIGS. 10A-10B. […] Error bars indicate standard error of the mean. […] Also illustrated in this diagram are the corresponding schedules for each treatment administered throughout this study. From tumor implantation, SEQ ID NO: 31 treated groups (2, 3, 6, and 7) were dosed SC (0.3 mg/kg/0.1 μmol/kg in buffer 15 mM succinate, 4% (w/v) D-mannitol, 10 mM hydoxypropyl-beta-cyclodextrin pH 4.4) on Days 5-9, 12-16, 19-23, and 26-29; aPD1 treated groups (3, 5, and 7) were dosed IP (5 mg/kg) on Days 5, 7, 12, and 14; and irradiated groups (4, 5, 6, and 7) received buffer and 5 Gy of X-ray radiation in three sets at the bone on Days 5, 8, and 12. Survival was observed until Day 33, following scheduled sacrifice of remaining mice. At this point, tumor sizes were measured using calipers. […] All groups were significant compared to the control group, so statistical analysis was based on Log-rank (Mantel-Cox) test against group 5 (radiation+aPD1) using GraphPad Prism.
# Animal care and treatment: Female C57BL/6J mice (6 weeks-old) were purchased from Oriental Bioservice (Kobe, Japan) and maintained under a 12-hour light/12-hour dark cycle with free access to water and standard mouse diet (CRF diet; Oriental Yeast Co., Ltd, Tokyo Japan). Implantation and drug administration: Mice were orthotopically implanted with E0771 breast cancer cells (Cosmo Bio Tokyo, Japan; 250,000 cells/mouse in RPMI1640 medium (Fujifilm, Tokyo Japan)) in their left mammary gland and E0771 mouse breast cancer cells (500,000 cells/mouse in 50% Matrigel (Corning, NY, USA, #354234)) in their femur. Mice were then randomized into several treatment groups: 1) control (n=5), 2) SEQ ID NO: 31 (n=5), 3) SEQ ID NO: 31 and aPD1 (n=5), 4) radiation (n=6), 5) radiation and aPD1 (n=5), 6) SEQ ID NO: 31 and radiation (n=6), 7) SEQ ID NO: 31, radiation, and aPD1 (n=6). […] Survival was monitored up to Day 33 (FIG. 10B) post cell inoculation, and following scheduled sacrifice of the remaining mice, tumors were harvested, and sizes were measured using calipers. […]
# [2] = molecular target: T1, human NPRC (Homo sapiens, UniProt P17342); assay: Fluorescence polarization (FP) assay with CNP-F* probe, NPRC; type: binding; settings: 150 nM test article, 5 nM CNP-F*, 50 nM human NPRC
# T1 construct: NPRC Q1-S434, (GenBank Accn. #NP_001191304.1); made in house; host or cells: Expi293 cells
# T1 sequence (P17342 43-476 limits assumed): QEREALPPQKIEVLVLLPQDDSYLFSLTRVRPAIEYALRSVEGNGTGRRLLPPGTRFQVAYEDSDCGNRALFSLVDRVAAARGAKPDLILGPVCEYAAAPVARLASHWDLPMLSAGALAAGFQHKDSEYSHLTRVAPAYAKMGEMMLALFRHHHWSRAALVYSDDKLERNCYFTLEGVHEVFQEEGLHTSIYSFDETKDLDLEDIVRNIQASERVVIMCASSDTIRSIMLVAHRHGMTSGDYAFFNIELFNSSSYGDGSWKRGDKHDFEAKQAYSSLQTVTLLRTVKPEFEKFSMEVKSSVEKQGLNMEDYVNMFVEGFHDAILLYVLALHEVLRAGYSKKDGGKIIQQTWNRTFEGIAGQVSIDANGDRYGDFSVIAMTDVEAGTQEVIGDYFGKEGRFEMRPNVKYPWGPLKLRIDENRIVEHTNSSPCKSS
# Method: Error bars represent standard error of the mean. […] NO.
# In the presence of [SEQ ID.
# The CNP-F* probe was incubated at a final concentration of 5 nM in the presence of 50 nM human NPRB or NPRC in an assay buffer containing PBS, pH 7.4 and 0.01% Triton X-100. A […] volume of CNP-F* probe and NPR were dispensed into a black 96-well Costar flat-bottom polystyrene plate prior to FP measurement. Next, […] volume of SEQ ID. No. 31 (final concentration 150 nM) was added to the premixed probe and NPR. The plate was incubated at room temperature for 10 min. Fluorescence polarization was then measured on Flexstation 3 (excitation wavelength: 480 nm; emission wavelength: 525 nm and cutoff at 515 nm).
# CNP-F* was prepared using solid phase peptide synthesis. […] Next, the crude linear peptide was cleavage with 95% TFA in the presence of carbocation scavengers and ether precipitation.
smiles,measurement,setting,value
CCCCCCCCCCCCCCCC(=O)NCCOCCOCC(=O)NCCOCCOCC(=O)NCCOCCOCC(=O)N[C@@H](CN)C(=O)N[C@@H](CN)C(=O)NCC(=O)N[C@@H](CC(C)C)C(=O)N[C@@H](CO)C(=O)N[C@@H](CCCCN)C(=O)NCC(=O)N[C@H]1CSSC[C@@H](C(=O)O)NC(=O)CNC(=O)[C@H](CC(C)C)NC(=O)CNC(=O)[C@H](CO)NC(=O)[C@H](CCC(N)=O)NC(=O)[C@H](CO)NC(=O)CNC(=O)[C@H]([C@@H](C)CC)NC(=O)[C@H](CCCNC(=N)N)NC(=O)[C@H](CC(=O)O)NC(=O)[C@H](CC(C)C)NC(=O)[C@H](CCCCN)NC(=O)[C@H](CC(C)C)NC(=O)CNC(=O)[C@H](Cc2ccccc2)NC1=O [SEQ ID NO: 31] ({Palmitoyl-AEEA-AEEA-AEEA}-[Dap][Dap]GLSKGCFGLKLDRIGSQSGLGC-OH; disulfide 8-24; C-terminus assumed),Incidence of bone metastasis,[1]; addition of SEQ ID NO: 31 in all its respective groups,reduced the incidence of bone metastasis
same,Mice tumor free in the bone,[1]; group 6: SEQ ID NO: 31 + radiation,5 out of 6
same,Probability of survival vs group 5 (radiation+aPD1),"[1]; group 7: SEQ ID NO: 31 0.3 mg/kg SC + radiation + aPD1, to Day 33",significant improvement in survival
same,Mice tumor free in the bone,[1]; group 7: SEQ ID NO: 31 + radiation + aPD1,6 out of 6
same,Binding to NPRC (FP signal of CNP-F* probe),[2],low FP signal demonstrates binding

# Source: patent publication US20240325544A1, “CATIONIC LIPID FOR COVALENT MODIFICATION OF PEPTIDES” (PharmalN Corporation, priority 2023, published 2024)
